These results are taken from article doi:10.1101/2025.03.14.643404, “A Bivalent Molecular Glue Linking Lysine Acetyltransferases to Oncogene-induced Cell Death” (bioRxiv, 2025).

The test system of one assay is c-MYC protein. The assay can be described thus: Western blot of c-MYC protein in SUDHL5. The assay is classed as cell-based, human. The method, then:
Cells were plated at 1M/mL and treated with drug at indicated timepoints and doses. Cells were harvested on ice in RIPA buffer (50mM Tris-HCl pH 8, 150mM NaCl, 1% NP-40, 0.1% DOC, 1% SDS, protease inhibitor cocktail (~20 mg/ml pepstatin, aprotinin, and leupeptin), 1mM DTT) and 1:200 benzonase (Sigma E1014) was added and incubated for 20 mins. After 10 min centrifugation at 14,000g and 4 °C, the supernatant was collected and protein concentration was measured by Bradford. SDS-PAGE analysis was carried out in either 4–12% or 12% Bis-Tris PAGE gels (Thermo NW04120 and NW04127). Antibodies used for immunoblots were: BCL6 (1:1000 v:v, Cell Signaling D65C10), p300 (1:250, Santa Cruz F-4 sc-48343), CBP (1:1000, Cell Signaling D6C5), c-MYC (1:1000, Cell Signaling D84C12), Caspase-3 (1:1000, Cell Signaling 9662), GAPDH (1:2000, Santa Cruz 6C5 sc-32233), BBC3/PUMA (1:1000, Cell Signaling E2P7G), FOXO3 (1:1000, Cell Signaling 75D8), H3K27ac (1:1000, abcam ab4729), H2BK20ac (1:1000, Cell Signaling D709W), H3 (1:10,000, Cell Signaling 1B1B2), H2B (1:10,000, Cell Signaling D2H6), p27/CDKN1B (1:1000, Cell Signaling D69C12), and TP53 (1:1000, Santa Cruz DO-1). ImageStudio (Licor) was used for blot imaging and quantification.
A general note: Immunoblotting shows a protein as a band on a membrane.

The target in another assay is T1, BRPF1 (Homo sapiens, UniProt P55201).
T1 construct: purchased BROMOscan (service)
T1 sequence (P55201 628-732 limits assumed): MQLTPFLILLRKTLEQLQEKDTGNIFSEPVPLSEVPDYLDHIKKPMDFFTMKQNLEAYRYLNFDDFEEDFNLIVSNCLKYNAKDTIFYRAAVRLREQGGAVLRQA
The assay can be described thus: BROMOscan binding to recombinant human bromodomains. Conditions: 10 μM.

Another assay concerns the target T2, p300 (Homo sapiens, UniProt Q09472).
T2 construct: endogenous in cells; host or cells: SUDHL5
The assay can be described thus: Global proteome profiling in SUDHL5, p300 abundance. The assay is classed as cell-based. The settings on record: SUDHL5, 10 nM, 24 hours. The method, then:
SUDHL5 cells (6M cells in 6 mL RPMI-1640 media supplemented with 10% FBS and 1x pen-strep) were treated with 0.1% DMSO, 10 nM TCIP3, 10 nM Neg1, 10 nM Neg2, or 250 nM dCBP1 (1000x stocks in DMSO for final 0.1% DMSO concentration) in 3 biologically independent replicates. The cells were washed twice with TBS (50 mM Tris, pH 8.5, and 150 mM NaCl) and then stored at −80 °C until use.
Lysis was performed by first thermally denaturing the samples in residual wash buffer for 5 min at 95 °C. Fresh Lysis Buffer (8 M urea, 150 mM NaCl, and 100 mM HEPES, pH 8.0, in MS-grade water) was then added, and the lysates were homogenized using needle ultrasonication and then normalized to 30 μg of 2 mg/mL by diluting with Lysis Buffer via a Bradford protein concentration assay (Bio-Rad 5000006) in technical duplicates. […]
Samples were then desalted using SOLAμ SPE HRP Peptide Desalting columns (Thermo 60209–001) with a Positive Pressure Manifold and all MS-grade reagents. […] The samples were then reconstituted in 0.1% FA in water and then analyzed by LC-MS/MS (see below).
The reconstituted desalted peptides were then analyzed using a nanoElute 2 UHPLC (Bruker Daltonics, Bremen, Germany) coupled to a timsTOF HT (Bruker Daltonics, Bremen, Germany) via a CaptiveSpray nano-electrospray source. […]

The test system of a further assay is SUDHL5 cells. In words: Annexin V staining of SUDHL5. In kind it is cell-based, human. The method, then: 25,000 cells were plated in 200 μL of media in 96 well U-bottom plates and treated with compound. […] Centrifugation and washing was repeated once more. Cells were then resuspended in 50 μL cold binding buffer (10 mM HEPES pH 7.4, 140 mM NaCl, 2.5 mM CaCl2) and 2.5 μL FITC-Annexin-V (Biolegend 640922). A no-stain control was also included to draw gates. The plate was allowed to incubate for 15 minutes at room temperature, at which point 100 μL of 2.5% FBS in PBS was added to each well. The plate was gently agitated through shaking, and samples were analyzed by flow cytometry on a BD Accuri. At least 50k events were collected per sample.

T2 sequence (Q09472 2-2414 limits assumed, other chains not shown): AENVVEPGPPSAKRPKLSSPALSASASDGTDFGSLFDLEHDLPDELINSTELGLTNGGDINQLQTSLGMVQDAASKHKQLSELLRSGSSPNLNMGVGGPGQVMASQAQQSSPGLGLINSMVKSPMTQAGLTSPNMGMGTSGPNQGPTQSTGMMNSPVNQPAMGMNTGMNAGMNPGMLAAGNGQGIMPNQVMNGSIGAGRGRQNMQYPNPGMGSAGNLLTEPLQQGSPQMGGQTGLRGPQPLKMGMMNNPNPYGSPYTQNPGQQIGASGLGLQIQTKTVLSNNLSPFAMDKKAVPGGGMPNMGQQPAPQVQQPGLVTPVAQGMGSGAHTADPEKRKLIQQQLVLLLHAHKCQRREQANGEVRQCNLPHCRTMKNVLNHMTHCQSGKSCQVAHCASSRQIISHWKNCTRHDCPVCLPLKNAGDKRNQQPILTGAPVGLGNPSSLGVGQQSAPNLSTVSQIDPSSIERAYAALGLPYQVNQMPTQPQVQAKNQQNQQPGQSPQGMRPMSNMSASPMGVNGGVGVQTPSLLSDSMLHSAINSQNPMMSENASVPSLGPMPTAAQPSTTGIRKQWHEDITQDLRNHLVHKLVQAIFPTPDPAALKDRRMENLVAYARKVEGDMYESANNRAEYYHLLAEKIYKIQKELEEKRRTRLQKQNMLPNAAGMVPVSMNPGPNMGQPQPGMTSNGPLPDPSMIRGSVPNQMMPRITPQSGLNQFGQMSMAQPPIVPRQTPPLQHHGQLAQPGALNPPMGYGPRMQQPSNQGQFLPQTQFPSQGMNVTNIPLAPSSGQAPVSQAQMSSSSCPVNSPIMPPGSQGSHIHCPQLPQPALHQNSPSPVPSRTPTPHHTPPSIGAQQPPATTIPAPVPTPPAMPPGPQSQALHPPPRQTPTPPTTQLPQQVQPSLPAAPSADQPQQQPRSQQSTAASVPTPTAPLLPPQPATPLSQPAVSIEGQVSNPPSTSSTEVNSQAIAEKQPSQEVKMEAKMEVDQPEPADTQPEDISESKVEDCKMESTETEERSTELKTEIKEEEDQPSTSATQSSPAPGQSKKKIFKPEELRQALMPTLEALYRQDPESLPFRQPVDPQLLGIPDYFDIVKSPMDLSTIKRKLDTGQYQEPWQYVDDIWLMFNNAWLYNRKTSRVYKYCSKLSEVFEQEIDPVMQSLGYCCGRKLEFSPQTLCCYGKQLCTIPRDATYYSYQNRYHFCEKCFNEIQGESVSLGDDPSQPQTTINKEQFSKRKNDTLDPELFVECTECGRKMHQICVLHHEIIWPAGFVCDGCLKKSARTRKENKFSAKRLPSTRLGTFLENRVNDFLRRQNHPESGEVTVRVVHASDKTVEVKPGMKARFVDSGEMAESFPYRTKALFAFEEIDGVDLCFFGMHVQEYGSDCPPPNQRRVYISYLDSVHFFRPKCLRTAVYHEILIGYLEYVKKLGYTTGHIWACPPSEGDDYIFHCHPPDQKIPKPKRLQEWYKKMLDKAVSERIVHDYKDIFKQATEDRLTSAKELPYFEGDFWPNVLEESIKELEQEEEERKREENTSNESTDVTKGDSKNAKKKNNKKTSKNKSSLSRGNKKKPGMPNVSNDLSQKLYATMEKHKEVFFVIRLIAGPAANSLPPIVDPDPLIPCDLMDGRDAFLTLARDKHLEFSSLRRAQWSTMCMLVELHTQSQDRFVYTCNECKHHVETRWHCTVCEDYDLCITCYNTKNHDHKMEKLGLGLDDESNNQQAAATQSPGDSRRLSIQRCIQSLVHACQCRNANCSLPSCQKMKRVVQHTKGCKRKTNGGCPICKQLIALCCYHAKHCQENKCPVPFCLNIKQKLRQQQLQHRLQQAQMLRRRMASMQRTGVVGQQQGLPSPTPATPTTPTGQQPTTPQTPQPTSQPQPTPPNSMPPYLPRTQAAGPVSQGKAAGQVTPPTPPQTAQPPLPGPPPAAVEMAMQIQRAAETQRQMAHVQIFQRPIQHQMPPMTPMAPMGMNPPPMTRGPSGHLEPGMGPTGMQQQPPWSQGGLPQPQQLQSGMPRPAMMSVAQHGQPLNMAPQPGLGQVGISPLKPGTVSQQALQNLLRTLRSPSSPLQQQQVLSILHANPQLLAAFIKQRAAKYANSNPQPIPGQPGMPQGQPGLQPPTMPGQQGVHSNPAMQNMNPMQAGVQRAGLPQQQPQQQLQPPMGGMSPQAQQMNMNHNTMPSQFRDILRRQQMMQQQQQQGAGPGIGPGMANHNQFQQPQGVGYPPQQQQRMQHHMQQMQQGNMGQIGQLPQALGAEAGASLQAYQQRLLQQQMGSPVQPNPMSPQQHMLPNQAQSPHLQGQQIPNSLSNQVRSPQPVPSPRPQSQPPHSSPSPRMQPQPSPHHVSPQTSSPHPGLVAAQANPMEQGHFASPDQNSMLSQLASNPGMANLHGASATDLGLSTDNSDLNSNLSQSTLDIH

What is called IC50 is the midpoint of a concentration-inhibition curve. With `CNC(=O)COc1cc2cc(Nc3nc(N4CCC(C(=O)N5CCN(CCC(=O)N6CCC(n7nc(N8CCCc9cc(-c%10cnn(C)c%10)c(C(F)F)cc98)c8c7CCN(C(=O)NC)C8)CC6)CC5)CC4)ncc3Cl)cc(OC)c2n(C)c1=O` [TCIP3], the “t1/2 of c-MYC protein decrease” value with c-MYC protein (SUDHL5, 1 nM) amounted to 2.5 h. In addition, the IC50 in the assay on c-MYC protein (SUDHL5, 4 hours, read-out: IC50 of c-MYC protein repression) is ~0.8 nM. Also, the “bromodomain selectivity” value on BRPF1 is “may also engage BRPF1 at high compound concentrations”. Besides, the “p300 protein abundance log2(fold change)” value at p300 is 0.37. For the same molecule, in the assay with SUDHL5 cells (SUDHL5, 10 nM, 72 hours), the “Annexin V-positive cells, times higher than DMSO” value is on record as 2.9 times; the “Annexin V-positive cells, times higher than NEG1” value is listed as 2.3 times; the “Annexin V-positive cells, times higher than NEG2” value was 2.5 times; the “cells stained positive for Annexin V” value was 82%. Besides, in the assay with SUDHL5 cells (SUDHL5, 24, 48, 72 hours), the “induction of apoptosis” value was “significant increases in Annexin V-positive cells began after 48 hours”.
